Test: Solubility of PPPBP in methanol (amount of methanol required to bring PPPBP into solution)
Format: physicochemical
Excerpt: Studies were undertaken to determine the amount of methanol required to bring PPPBP into solution at room temperature and at elevated temperature.

- Volumes of methanol (at reflux temp): 17 volumes
- Volumes of methanol (at room temp): 20 volumes
Compound: O=C1c2ccccc2C(c2ccc(O)cc2)(c2ccc(O)cc2)N1c1ccccc1 [Pure PPPBP, 2-phenyl-3,3-bis(4-hydroxyphenyl)phthalimidine]

— patent US10005884B2, “Methods for purifying 2-aryl-3,3-bis(hydroxyaryl)phthalimidines” (SABIC GLOBAL TECHNOLOGIES B.V., priority 2014, dated 2018)
